# Experimental data reported in US20240090503A1, “FUNGICIDAL OXADIAZOLES AND THEIR MIXTURES” (FMC CORPORATION, priority 2020, published 2024).
# Tests used:
# [1] = tested on: Phakopsora pachyrhizi (the causal agent of Asian soybean rust); experiment: Test A: preventive spray on soybean seedlings, Asian soybean rust, visual disease rating; assay type: in vivo; settings: soybean seedlings
# Source text: (§1) General protocol for preparing test suspensions for Tests A-D: the test compounds were first dissolved in acetone in an amount equal to 3% of the final volume and then suspended at the desired concentration (in ppm) in acetone and purified water (50/50 mix by volume) containing 250 ppm of the surfactant PEG400 (polyhydric alcohol esters). The resulting test suspensions were then used in Tests A-D.
# The test suspension was sprayed to the point of run-off on soybean seedlings. The following day the seedlings were inoculated with a spore suspension of Phakopsora pachyrhizi (the causal agent of Asian soybean rust) and incubated in a saturated atmosphere at 22° C. for 24 h and then moved to a growth chamber at 22° C. for 8 days, after which time visual disease ratings were made.
# (§2) The test results for Tests A-C presented in Table A below for compounds of Formula 1 illustrate the fungicidal activity of component (a) contributing to the plant disease control utility of compositions comprising component (a) in combination with component (b) according to the present invention. In the Table, a rating of 100 indicates 100% disease control and a rating of 0 indicates no disease control (relative to the controls). A dash (-) indicates the compound was not tested. The test suspensions were sprayed at the concentration listed in the column “Rate in ppm”, unless otherwise indicated. An asterisk “*” next to the rating indicates a 250 ppm test suspension was used, a double asterisk “**” next to the rating indicates a 100 ppm test suspension was used, and a triple asterisk “***” next to the rating indicates a 50 ppm test suspension was used.
# [2] = tested on: Puccinia recondita f. sp. tritici (the causal agent of wheat leaf rust); experiment: Test C: preventive spray on wheat seedlings, wheat leaf rust, visual disease rating; assay type: in vivo; settings: wheat seedlings
# Source text: as §1
# The test suspension was sprayed to the point of run-off on wheat seedlings. The following day the seedlings were inoculated with a spore suspension of Puccinia recondita f. sp. tritici; (the causal agent of wheat leaf rust) and incubated in a saturated atmosphere at 20° C. for 24 h, and then moved to a growth chamber at 20° C. for 6 days, after which time visual disease ratings were made.
# as §2
# [3] = test suspension 10 ppm, 100 = 100% disease control, 0 = no control
compound,measurement,setting,value
Cc1nn(Cc2ccc(-c3noc(C(F)(F)F)n3)cc2)c2ccc(Br)cc12 [compound 51],Test A disease control rating,[1]; [3],99%
same,Test C disease control rating,[2]; test suspension 10 ppm,68%
Cc1c2cc(Br)ccc2nn1Cc1ccc(-c2noc(C(F)(F)F)n2)cc1 [compound 52],Test A disease control rating,[1]; [3],99%
same,Test C disease control rating,[2]; test suspension 10 ppm,80%
FC(F)(F)c1nc(-c2ccc(Cn3ncc4c(Cl)cc(Br)cc43)cc2)no1 [compound 53],Test A disease control rating,[1]; [3],0%
same,Test C disease control rating,[2]; test suspension 10 ppm,9%
FC(F)(F)c1nc(-c2ccc(Cn3cc4c(Cl)cc(Br)cc4n3)cc2)no1 [compound 54],Test A disease control rating,[1]; [3],99%
same,Test C disease control rating,[2]; test suspension 10 ppm,68%
O=C(O)c1cnn(Cc2ccc(-c3noc(C(F)(F)F)n3)cc2)c1 [compound 55],Test A disease control rating,[1]; [3],100%
same,Test C disease control rating,[2]; test suspension 10 ppm,99%
CNC(=O)c1cnn(Cc2ccc(-c3noc(C(F)(F)F)n3)cc2)c1 [compound 61],Test A disease control rating,[1]; [3],100%
same,Test C disease control rating,[2]; test suspension 10 ppm,100%
CN(C)C(=O)c1cnn(Cc2ccc(-c3noc(C(F)(F)F)n3)cc2)c1 [compound 62],Test A disease control rating,[1]; [3],100%
same,Test C disease control rating,[2]; test suspension 10 ppm,100%
CC(C)NC(=O)c1cnn(Cc2ccc(-c3noc(C(F)(F)F)n3)cc2)c1 [compound 63],Test A disease control rating,[1]; [3],100%
same,Test C disease control rating,[2]; test suspension 10 ppm,100%
C=CCNC(=O)c1cnn(Cc2ccc(-c3noc(C(F)(F)F)n3)cc2)c1 [compound 64],Test A disease control rating,[1]; [3],100%
same,Test C disease control rating,[2]; test suspension 10 ppm,100%
N#CCNC(=O)c1cnn(Cc2ccc(-c3noc(C(F)(F)F)n3)cc2)c1 [compound 65],Test A disease control rating,[1]; [3],100%
same,Test C disease control rating,[2]; test suspension 10 ppm,100%
CCOC(=O)c1c(C)nn(Cc2ccc(-c3noc(C(F)(F)F)n3)cc2)c1C [compound 66],Test A disease control rating,[1]; test suspension 255 ppm,100%
same,Test C disease control rating,[2]; test suspension 255 ppm,100%
CCNC(=O)c1cnn(Cc2ccc(-c3noc(C(F)(F)F)n3)cc2)c1 [compound 67],Test A disease control rating,[1]; [3],100%
same,Test C disease control rating,[2]; test suspension 10 ppm,99%
CCCNC(=O)c1cnn(Cc2ccc(-c3noc(C(F)(F)F)n3)cc2)c1 [compound 68],Test A disease control rating,[1]; [3],100%
same,Test C disease control rating,[2]; test suspension 10 ppm,100%
O=C(NC1CC1)c1cnn(Cc2ccc(-c3noc(C(F)(F)F)n3)cc2)c1 [compound 69],Test A disease control rating,[1]; [3],100%
same,Test C disease control rating,[2]; test suspension 10 ppm,100%
FC(F)(F)c1nc(-c2ccc(Cn3ccc(Br)n3)s2)no1 [compound 72],Test A disease control rating,[1]; test suspension 50 ppm,99%
same,Test C disease control rating,[2]; test suspension 50 ppm,100%
CCOC(=O)c1cc(C)n(Cc2ccc(-c3noc(C(F)(F)F)n3)s2)n1 [compound 73],Test A disease control rating,[1]; [3],100%
same,Test C disease control rating,[2]; test suspension 10 ppm,86%
N#Cc1c(Br)cnn1Cc1ccc(-c2noc(C(F)(F)F)n2)s1 [compound 77],Test A disease control rating,[1]; test suspension 50 ppm,100%
same,Test C disease control rating,[2]; test suspension 50 ppm,100%
CC(C)(C)NC(=O)c1cnn(Cc2ccc(-c3noc(C(F)(F)F)n3)cc2)c1 [compound 78],Test A disease control rating,[1]; [3],100%
same,Test C disease control rating,[2]; test suspension 10 ppm,100%
CCOC(=O)c1cc(CC)n(Cc2ccc(-c3noc(C(F)(F)F)n3)cc2)n1 [compound 79],Test A disease control rating,[1]; [3],100%
same,Test C disease control rating,[2]; test suspension 10 ppm,68%
CCOC(=O)c1cc(C(C)C)n(Cc2ccc(-c3noc(C(F)(F)F)n3)cc2)n1 [compound 80],Test A disease control rating,[1]; [3],100%
same,Test C disease control rating,[2]; test suspension 10 ppm,68%
CCOC(=O)c1cc(CC)nn1Cc1ccc(-c2noc(C(F)(F)F)n2)cc1 [compound 81],Test A disease control rating,[1]; [3],100%
same,Test C disease control rating,[2]; test suspension 10 ppm,0%
CCOC(=O)c1cc(C(C)C)nn1Cc1ccc(-c2noc(C(F)(F)F)n2)cc1 [compound 82],Test A disease control rating,[1]; [3],0%
same,Test C disease control rating,[2]; test suspension 10 ppm,0%
FC(F)(F)c1nc(-c2ccc(Cn3ccc(Br)n3)cc2)no1 [compound 97],Test A disease control rating,[1]; test suspension 50 ppm,99%
same,Test C disease control rating,[2]; test suspension 50 ppm,100%
CC(C)(C)c1ccn(Cc2ccc(-c3noc(C(F)(F)F)n3)cc2)n1 [compound 98],Test A disease control rating,[1]; test suspension 50 ppm,99%
same,Test C disease control rating,[2]; test suspension 50 ppm,68%
Cc1nn(Cc2ccc(-c3noc(C(F)(F)F)n3)cc2)c2ccccc12 [compound 99],Test A disease control rating,[1]; [3],100%
same,Test C disease control rating,[2]; test suspension 10 ppm,68%
Cc1cccc2c1cnn2Cc1ccc(-c2noc(C(F)(F)F)n2)cc1 [compound 100],Test A disease control rating,[1]; [3],100%
same,Test C disease control rating,[2]; test suspension 10 ppm,86%
Cc1cccc2cnn(Cc3ccc(-c4noc(C(F)(F)F)n4)cc3)c12 [compound 101],Test A disease control rating,[1]; test suspension 50 ppm,100%
same,Test C disease control rating,[2]; test suspension 50 ppm,100%
Cc1cccc2nn(Cc3ccc(-c4noc(C(F)(F)F)n4)cc3)cc12 [compound 102],Test A disease control rating,[1]; [3],100%
same,Test C disease control rating,[2]; test suspension 10 ppm,99%
Cc1cccc2cn(Cc3ccc(-c4noc(C(F)(F)F)n4)cc3)nc12 [compound 103],Test A disease control rating,[1]; [3],100%
same,Test C disease control rating,[2]; test suspension 10 ppm,97%
N#Cc1nn(Cc2ccc(-c3noc(C(F)(F)F)n3)cc2)c2ccccc12 [compound 104],Test A disease control rating,[1]; [3],100%
same,Test C disease control rating,[2]; test suspension 10 ppm,68%
N#Cc1cccc2c1cnn2Cc1ccc(-c2noc(C(F)(F)F)n2)cc1 [compound 105],Test A disease control rating,[1]; test suspension 50 ppm,100%
same,Test C disease control rating,[2]; test suspension 50 ppm,100%
N#Cc1ccc2c(cnn2Cc2ccc(-c3noc(C(F)(F)F)n3)cc2)c1 [compound 106],Test A disease control rating,[1]; test suspension 50 ppm,100%
same,Test C disease control rating,[2]; test suspension 50 ppm,100%
N#Cc1cccc2nn(Cc3ccc(-c4noc(C(F)(F)F)n4)cc3)cc12 [compound 107],Test A disease control rating,[1]; [3],100%
same,Test C disease control rating,[2]; test suspension 10 ppm,90%
N#Cc1ccc2nn(Cc3ccc(-c4noc(C(F)(F)F)n4)cc3)cc2c1 [compound 108],Test A disease control rating,[1]; test suspension 50 ppm,100%
same,Test C disease control rating,[2]; test suspension 50 ppm,100%
CCOC(=O)c1cc(C)nn1Cc1ccc(-c2noc(C(F)(F)F)n2)cc1 [compound 109],Test A disease control rating,[1]; test suspension 50 ppm,100%
same,Test C disease control rating,[2]; test suspension 50 ppm,77%
FC(F)(F)c1nc(-c2ccc(Cn3nc(Br)c4ccccc43)cc2)no1 [compound 112],Test A disease control rating,[1]; [3],92%
same,Test C disease control rating,[2]; test suspension 10 ppm,0%
FC(F)(F)c1nc(-c2ccc(Cn3nc4ccccc4c3Br)cc2)no1 [compound 113],Test A disease control rating,[1]; [3],99%
same,Test C disease control rating,[2]; test suspension 10 ppm,0%
Nc1ccc2c(cnn2Cc2ccc(-c3noc(C(F)(F)F)n3)cc2)c1 [compound 115],Test A disease control rating,[1]; [3],98%
same,Test C disease control rating,[2]; test suspension 10 ppm,95%
COc1ccc2c(C#N)n(Cc3ccc(-c4noc(C(F)(F)F)n4)cc3)nc2c1 [compound 121],Test A disease control rating,[1]; [3],87%
same,Test C disease control rating,[2]; test suspension 10 ppm,0%
COc1ccc2c(cnn2Cc2ccc(-c3noc(C(F)(F)F)n3)cc2)c1 [compound 126],Test A disease control rating,[1]; test suspension 260 ppm,100%
same,Test C disease control rating,[2]; test suspension 260 ppm,100%
Cc1cc(C(F)(F)F)n(Cc2ccc(-c3noc(C(F)(F)F)n3)cc2)n1 [compound 127],Test A disease control rating,[1]; [3],0%
same,Test C disease control rating,[2]; test suspension 10 ppm,0%
COc1ccc2nn(Cc3ccc(-c4noc(C(F)(F)F)n4)cc3)cc2c1 [compound 131],Test A disease control rating,[1]; [3],100%
same,Test C disease control rating,[2]; test suspension 10 ppm,99%
FC(F)(F)c1nc(-c2ccc(Cn3ccc4ccncc43)cc2)no1 [compound 135],Test A disease control rating,[1]; [3],96%
same,Test C disease control rating,[2]; test suspension 10 ppm,0%
FC(F)(F)c1nc(-c2ccc(Cn3ccc4cnccc43)cc2)no1 [compound 137],Test A disease control rating,[1]; [3],100%
same,Test C disease control rating,[2]; test suspension 10 ppm,41%
O=C(O)c1cc(C(=O)O)n(Cc2ccc(-c3noc(C(F)(F)F)n3)cc2)n1 [compound 140],Test A disease control rating,[1]; [3],0%
same,Test C disease control rating,[2]; test suspension 10 ppm,0%
